The source of these data is patent US7915423B2, “Solid states of pantoprazole sodium, processes for preparing them and processes for preparing known pantoprazole sodium hydrates” (Teva Pharmaceutical Industries, Ltd., priority 2002, dated 2011).

The nature of series [1]: Thermal interconversion of solid forms on drying, followed by PXRD. Type of series: physicochemical. The protocol: The PXRD patterns depicted in the accompanying figures were obtained on a Scintag X-Ray powder diffractometer model X'TRA with a copper tube solid state detector. A round standard aluminum sample holder with round zero background quartz plate was used. Scanning parameters: Range: 2-40°2θ: continuous scan, Rate: 3 deg./min.
The mixture was stirred overnight at ambient temperature, giving the crystals. The crystals were filtered on filter paper.
Pantoprazole sodium Form V was dried at 65° C. under ambient pressure for two hours.
The solution was stirred overnight without precipitation. The solution was allowed to stand overnight in an opened flask with precipitation of the product. The crystals were filtered and allowed to stand at room temperature open to the air for a short period of time but were not otherwise dried.
The pantoprazole sodium Form VI was then dried at 50° C. under a 10 mm Hg vacuum overnight. The resulting powder was analyzed by PXRD and found to be amorphous.

The conditions of series [2]: cited from earlier work.
A short description of series [3]: Solubility of pantoprazole sodium in alcohols. Type of series: physicochemical. From the text: Accordingly, initial investigation focused on how this solvate could be produced by crystallization from a solution rather than a heterogeneous technique. We discovered that combining free pantoprazole and solid sodium hydroxide in 1-butanol and crystallization of the resulting pantoprazole sodium salt yielded Form V. The presence of minor amounts of water originating from the use of non-anhydrous 1-butanol, a hydrated starting material or water adsorbed on the equipment used for crystallization has no effect on the crystal form obtained. […] Again, conditions depleted of water, yet not rigorously anhydrous were investigated. We discovered that Form X can be obtained by crystallization from a solution formed by combining free pantoprazole with sodium hydroxide in 1-propanol.

Series [4] in a line: Thermal interconversion of solid forms on drying, followed by PXRD. The series is classed as physicochemical. The settings on record: 100° C. under 10 mm vacuum overnight.
Setting [5] is: 50° C. under 10 mm Hg vacuum overnight.
Setting [6] is: 65° C. under ambient pressure for two hours.

As to `COc1ccnc(C[S+]([O-])c2nc3ccc(OC(F)F)cc3[nH]2)c1OC` (stereo not shown) [Form XIV, pantoprazole sodium], the “solid form obtained after drying (PXRD)” value in series [1] (setting [5]) is “pantoprazole sodium Form XV”. Consider `COc1ccnc(C[S+]([O-])c2nc3ccc(OC(F)F)cc3[nH]2)c1OC` (stereo not shown) [Form XX, pantoprazole sodium], for which the dehydration on drying result in series [1] (mild conditions such as 50° C. at 10 mm Hg vacuum) is “without causing significant dehydration”. In the case of `COc1ccnc(C[S+]([O-])c2nc3ccc(OC(F)F)cc3[nH]2)c1OC` (stereo not shown) [Form XII, pantoprazole sodium], the “solid form obtained after drying (PXRD)” value in series [1] (setting [6]) is “pantoprazole sodium Form XIII”; in series [1] (65° C. under ambient pressure for two hours, listed as pantoprazole sodium 2-methylpropanol solvate) it was “pantoprazole sodium Form XIII”.

In the case of `COc1ccnc(C[S+]([O-])c2nc3ccc(OC(F)F)cc3[nH]2)c1OC` (stereo not shown) [monohydrate, pantoprazole sodium], the solubility in acetone result in series [2] is listed as “dissolves with difficulty”. As for `COc1ccnc(C[S+]([O-])c2nc3ccc(OC(F)F)cc3[nH]2)c1OC` (stereo not shown) [Form V, pantoprazole sodium], the “solid form obtained after drying (PXRD)” value was “pantoprazole sodium Form XIII” in series [1] (setting [6]) and “pantoprazole sodium Form XIII” in series [1] (65° C. under ambient pressure for two hours, listed as pantoprazole sodium 1-butanol solvate).

Consider `COc1ccnc(C[S+]([O-])c2nc3ccc(OC(F)F)cc3[nH]2)c1OC` (stereo not shown) [Form XIII, pantoprazole sodium], for which the “solid form obtained after further drying” value in series [1] (65° C. for another two hours under ambient pressure (Form XIII obtained from Form V)) is “partially amorphous”. In series [1] (setting [6]), the “solid form obtained after drying (PXRD)” value was “amorphous pantoprazole sodium”. For the compound `COc1ccnc(C[S+]([O-])c2nc3ccc(OC(F)F)cc3[nH]2)c1OC` (stereo not shown) [Form XVIII, pantoprazole sodium], in series [1] (drying at 50° C.), the “solid form by PXRD as wet sample and after drying” value was “Form XVIII”. For the compound `COc1ccnc(C[S+]([O-])c2nc3ccc(OC(F)F)cc3[nH]2)c1OC` (stereo not shown) [Form VIII, pantoprazole sodium], the “solid form obtained after drying” value in series [1] (50° C. under 10 mm Hg vacuum, time not given) is recorded as “pantoprazole sodium Form I”.

Consider `COc1ccnc(C[S+]([O-])c2nc3ccc(OC(F)F)cc3[nH]2)c1OC` (stereo not shown) [Pantoprazole sodium, pantoprazole sodium], for which the “solubility in 1-butanol” value in series [3] (1-butanol) was “appreciably soluble”. The “solubility in 1-propanol” value in series [3] (1-propanol) was “high solubility”. `COc1ccnc(C[S+]([O-])c2nc3ccc(OC(F)F)cc3[nH]2)c1OC` (stereo not shown) [Form VI, pantoprazole sodium]: in series [1] (setting [5]), the “solid form obtained after drying (PXRD)” value is recorded as “amorphous”.

For `COc1ccnc(C[S+]([O-])c2nc3ccc(OC(F)F)cc3[nH]2)c1OC` (stereo not shown) [Pantoprazole sodium sesquihydrate, pantoprazole sodium], the “solid form obtained after drying” value in series [4] is “amorphous pantoprazole sodium”. Take `COc1ccnc(C[S+]([O-])c2nc3ccc(OC(F)F)cc3[nH]2)c1OC` (stereo not shown) [Form IV, pantoprazole sodium]: in series [1] (setting [5]), the “solid form obtained after drying (PXRD)” value was “pantoprazole sodium Form I”.
